Among the test systems are A549 NSCLC; OVCAR-5 ovarian; UACC-257 melanoma; ACHN renal; SN12C renal; K-562 leukemia; M14 melanoma; HCT-116 colon; SF-295 CNS; MDA-MB-231 breast; SK-MEL-28 melanoma.
What all share (test): inhibition of tumour cell growth, NCI panel, 48 h

Molecules are shown by their SMILES.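 Growth conditions: 96-well plates. Treatment: test compound, 48 hours, 5 concentrations. Analysis: linear interpolation between bracketing concentrations; unreached endpoints set to highest concentration. At the TGI there is no net growth.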 Some results are limits rather than exact numbers.

In PubChem BioAssay (NCI) one finds TGI data, which are given here for 14 compounds.

On to `COc1ccc(/C(Cl)=C(\C#N)c2ccc(OC)c(OC)c2)cc1OC`, for which the TGI in the assay on A549 NSCLC, in the assay on OVCAR-5 ovarian, with UACC-257 melanoma, with ACHN renal, in the assay with SN12C renal and in the assay on K-562 leukemia was over 100 µM each time. The TGI with M14 melanoma, in the assay on HCT-116 colon, in the assay with SF-295 CNS and in the assay on MDA-MB-231 breast was over 100 µM each time.
Turning to `CCOC(=O)CCC1(CCC(=O)OCC)CCCCCCCCC(CCC(=O)OCC)(CCC(=O)OCC)C(=O)C1=O`, the TGI in the assay with A549 NSCLC, with SK-MEL-28 melanoma, with OVCAR-5 ovarian, in the assay on UACC-257 melanoma, in the assay on ACHN renal and in the assay with SN12C renal was over 100 µM each time. In addition, the TGI in the assay on K-562 leukemia, in the assay on M14 melanoma, in the assay on HCT-116 colon and in the assay with SF-295 CNS was over 100 µM in each case.
`CC(=O)O[C@]12CCCCCC1C1(O)C(O)CCCCC12` (some centres undefined): the TGI in the assay on A549 NSCLC, with SK-MEL-28 melanoma, in the assay with UACC-257 melanoma, with ACHN renal, in the assay with SN12C renal and with K-562 leukemia was over 100 µM throughout. The TGI with M14 melanoma and in the assay with SF-295 CNS was over 100 µM each time.
As to `CC(=O)O[C@@]12CO[C@@H]1CC(O)[C@@]1(C)C(=O)[C@H](O)C3=C(C)C(O)C[C@@](O)(C(OC(=O)c4ccccc4)C12)C3(C)C` (some centres undefined), the TGI in the assay on A549 NSCLC was over 100 µM; in the assay with OVCAR-5 ovarian it was over 29.1 µM; in the assay with UACC-257 melanoma, over 26.8 µM; in the assay on ACHN renal it was over 100 µM; in the assay on SN12C renal it was over 100 µM; in the assay on K-562 leukemia, over 100 µM. The TGI in the assay with M14 melanoma was over 48.5 µM; in the assay with HCT-116 colon, 19.2 µM; with SF-295 CNS it was over 51.1 µM; in the assay with MDA-MB-231 breast, 66 µM.
Turning to `Nc1c(S(=O)(=O)c2ccccc2)c2nc3ccccc3nc2n2c1nc1ccccc12`, the TGI in the assay on A549 NSCLC was over 100 µM; in the assay on SK-MEL-28 melanoma, over 62.3 µM; in the assay on OVCAR-5 ovarian, over 100 µM; in the assay with UACC-257 melanoma it was over 100 µM; with ACHN renal, over 100 µM; in the assay with SN12C renal, over 87.2 µM. Moreover, the TGI with K-562 leukemia was over 100 µM; in the assay on M14 melanoma, over 31.6 µM; in the assay with HCT-116 colon, over 100 µM; in the assay with SF-295 CNS it was over 53.4 µM.
For `CN1CCN(/C(N)=C(\C#N)C(=O)Nc2ccc(Cl)cc2)CC1`, the TGI with A549 NSCLC, in the assay with SK-MEL-28 melanoma, in the assay on OVCAR-5 ovarian, in the assay on UACC-257 melanoma, with ACHN renal and in the assay with SN12C renal was over 100 µM each time. The TGI in the assay on K-562 leukemia, in the assay with M14 melanoma, in the assay with HCT-116 colon and with SF-295 CNS was over 100 µM throughout.
Regarding `CCOC(=O)c1c(OCC)[nH]c(=O)c(C(c2cccs2)c2c(O)c(C(=O)OCC)c(OCC)[nH]c2=O)c1O`, the TGI in the assay on A549 NSCLC is 32.8 µM; in the assay on SK-MEL-28 melanoma, 43.6 µM; in the assay with OVCAR-5 ovarian, over 100 µM; with UACC-257 melanoma it was 36.9 µM; with ACHN renal it was 25.4 µM; with SN12C renal it was 34.6 µM. Besides, the TGI with M14 melanoma was 35.6 µM; with HCT-116 colon, 45 µM; in the assay with SF-295 CNS it was 49.6 µM; in the assay on MDA-MB-231 breast, 30.1 µM.
As for `Cc1n[n+](Cc2ccccc2)c2sc(N)nn12`, the TGI with A549 NSCLC, in the assay on SK-MEL-28 melanoma, in the assay with OVCAR-5 ovarian, in the assay with UACC-257 melanoma, in the assay on ACHN renal and in the assay with SN12C renal was over 100 µM each time. Further, the TGI in the assay on K-562 leukemia, in the assay with M14 melanoma, with HCT-116 colon and in the assay with SF-295 CNS was over 100 µM each time.
Consider `CC(=O)c1c(N=[N+]=[N-])c2cccc3c2n(c1=O)CCC3`, for which the TGI with A549 NSCLC was over 100 µM; in the assay with OVCAR-5 ovarian it was 34.5 µM; in the assay with UACC-257 melanoma, 37.8 µM; in the assay with ACHN renal, 54.2 µM; with SN12C renal it was 44.5 µM; in the assay on K-562 leukemia it was over 100 µM. The TGI in the assay on M14 melanoma was 36.3 µM; with HCT-116 colon, 33.5 µM; with SF-295 CNS, 60 µM; in the assay on MDA-MB-231 breast, 32.1 µM.
Consider `CCOC(=O)c1ccc(-c2ccc(Cl)cc2)[nH]1`, for which the TGI with A549 NSCLC, in the assay on OVCAR-5 ovarian, with UACC-257 melanoma, in the assay with ACHN renal, with SN12C renal and in the assay on K-562 leukemia was over 10 µM each time. The TGI in the assay with M14 melanoma, in the assay with HCT-116 colon and with SF-295 CNS was over 10 µM throughout.
Regarding `CC(=O)NC1C(Sc2ncn(C3OC(CO)C(O)C(O)C3NC(C)=O)n2)OC(CO)C(O)C1O` (centres undefined), the TGI with A549 NSCLC, with SK-MEL-28 melanoma, with OVCAR-5 ovarian, with UACC-257 melanoma, in the assay on ACHN renal and with SN12C renal was over 100 µM throughout. Moreover, the TGI with M14 melanoma, in the assay on HCT-116 colon, with SF-295 CNS and in the assay with MDA-MB-231 breast was over 100 µM each time.
As to `COC(=O)N[C@H](C(=O)NC(OCc1ccccc1)C1COC(C)(C)O1)C(C)O[Si](C)(C)C(C)(C)C` (some centres undefined), the TGI in the assay on A549 NSCLC, in the assay on SK-MEL-28 melanoma, in the assay with OVCAR-5 ovarian, in the assay with UACC-257 melanoma, in the assay with ACHN renal and in the assay with K-562 leukemia was over 100 µM throughout. In addition, the TGI in the assay with M14 melanoma and with HCT-116 colon was over 100 µM throughout.
On to `NC1(CCNC(=O)c2ccccc2)CCN(C(=O)c2ccccc2)CC1`, for which the TGI in the assay on A549 NSCLC, with OVCAR-5 ovarian, in the assay on UACC-257 melanoma, with ACHN renal, with SN12C renal and with K-562 leukemia was over 100 µM in each case. The TGI in the assay on M14 melanoma, in the assay on HCT-116 colon and in the assay with SF-295 CNS was over 100 µM throughout.
In the case of `CC(NC(=O)Cc1ccccc1)NC(=O)C(C)C(=O)NCc1ccccc1` (centres undefined), the TGI in the assay with A549 NSCLC, in the assay on OVCAR-5 ovarian, in the assay with UACC-257 melanoma, in the assay on ACHN renal, in the assay with SN12C renal and with K-562 leukemia was over 100 µM throughout. Besides, the TGI with M14 melanoma, with HCT-116 colon, in the assay on SF-295 CNS and in the assay on MDA-MB-231 breast was over 100 µM throughout.
